Series [1] relates to bicistronic HCV replicon (replicon RNA, GenBank Accession No. AJ242654). Kind of series: HCV Replicon Assay. As to conditions: Hepatitis C virus, 72 h, read-out: Replicon IC50. The class given is cell-based. In general terms: Replicon systems follow genome replication, usually without infectious particles.

The term IC50 denotes the midpoint of a concentration-inhibition curve. The melting point is the temperature of the solid-liquid transition. `Cc1cc2c(cc1F)c(C#N)c(-c1ccc(S(=O)(=O)N[C@@H](C)C(F)(F)F)cn1)n2-c1cccc(Cl)n1` [compound 962, 6-[1-(6-chloropyridin-2-yl)-3-cyano-5-fluoro-6-methyl-1H-indol-2-yl]-N-[(2S)-1,1,1-trifluoropropan-2-yl]pyridine-3-sulfonamide] returned a melting point of 253 to 257 °C. For the same molecule, in series [1], the IC50 is under 500 nM.
`Cc1cc2c(cc1F)c(C#N)c(-c1ccc(S(=O)(=O)N[C@@H](C)C(F)(F)F)cn1)n2-c1ccnc(F)c1` [compound 1013, 6-[3-cyano-5-fluoro-1-(2-fluoropyridin-4-yl)-6-methyl-1H-indol-2-yl]-N-[(2S)-1,1,1-trifluoropropan-2-yl]pyridine-3-sulfonamide] came in with a melting point of 243.4 to 246.9 °C. Further, in series [1], the IC50 was under 500 nM.
The matching figures for `Cc1cc2c(cc1Cl)c(C#N)c(-c1ncc(S(=O)(=O)N[C@@H](C)C(F)(F)F)cn1)n2C1CCC1` [compound 448, 2-(5-chloro-3-cyano-1-cyclobutyl-6-methyl-1H-indol-2-yl)-N-[(2S)-1,1,1-trifluoropropan-2-yl]pyrimidine-5-sulfonamide]: over 300 °C and 500 to 2000 nM.
On the same counts, the results for `CCc1cc2c(cc1F)c(C#N)c(-c1cc(C)c(S(=O)(=O)N[C@H](C)C(F)(F)F)cn1)n2-c1ncccn1` [compound 890, 6-[3-cyano-6-ethyl-5-fluoro-1-(pyrimidin-2-yl)-1H-indol-2-yl]-4-methyl-N-[(2R)-1,1,1-trifluoropropan-2-yl]pyridine-3-sulfonamide] are 231 to 236 °C and under 500 nM.
The matching figures for `C[C@H](NS(=O)(=O)c1cnc(-c2c(C#N)c3cc(C#N)ccc3n2C2CCCC2)nc1)C(F)(F)F` [compound 392, 2-(3,5-dicyano-1-cyclopentyl-1H-indol-2-yl)-N-[(2S)-1,1,1-trifluoropropan-2-yl]pyrimidine-5-sulfonamide]: 250 to 254 °C and under 500 nM.
`Cc1ccc2c(c1)c(C#N)c(-c1ccc(S(=O)(=O)NC(CF)CF)cn1)n2C1CCCC1` [compound 158, 6-(3-cyano-1-cyclopentyl-5-methyl-1H-indol-2-yl)-N-(1,3-difluoropropan-2-yl)pyridine-3-sulfonamide] showed a melting point of 168 to 173 °C. The IC50 in series [1] was under 500 nM.
On the same counts, the results for `COc1ccc2c(c1)c(C#N)c(-c1ccc(S(=O)(=O)NC(CF)CF)cn1)n2C1CCCC1` [compound 571, 6-(3-cyano-1-cyclopentyl-5-methoxy-1H-indol-2-yl)-N-(1,3-difluoropropan-2-yl)pyridine-3-sulfonamide] are 167 to 169 °C and under 500 nM.
On the same counts, the results for `N#Cc1c(-c2ncc(S(=O)(=O)NC(CF)CF)cn2)n(-c2ccc(F)cc2)c2cc(OC(F)F)ccc12` [compound 477, 2-[3-cyano-6-(difluoromethoxy)-1-(4-fluorophenyl)-1H-indol-2-yl]-N-(1,3-difluoropropan-2-yl)pyrimidine-5-sulfonamide] are 213 to 216 °C and under 500 nM.
The matching figures for `Cc1cc2c(cc1Cl)c(C#N)c(-c1ccc(S(=O)(=O)N[C@H](C)C(F)(F)F)cn1)n2C1CCC1` [compound 445, 6-(5-chloro-3-cyano-1-cyclobutyl-6-methyl-1H-indol-2-yl)-N-[(2R)-1,1,1-trifluoropropan-2-yl]pyridine-3-sulfonamide]: 213 to 215 °C and under 500 nM.
The molecule `Cc1ccc2c(C#N)c(-c3ccc(S(=O)(=O)NC4(C(F)(F)F)CCC4)cn3)n(C3CCC3)c2c1` [compound 587, 6-(3-cyano-1-cyclobutyl-6-methyl-1H-indol-2-yl)-N-[1-(trifluoromethyl)cyclobutyl]pyridine-3-sulfonamide] had a melting point of 228 to 232 °C. Moreover, the IC50 in series [1] is under 500 nM.
The matching figures for `Cc1ccc2c(C#N)c(-c3ncc(S(=O)(=O)N[C@@H](C)C(F)(F)F)cn3)n(C(C)C)c2c1` [compound 403, 2-[3-cyano-6-methyl-1-(propan-2-yl)-1H-indol-2-yl]-N-[(2S)-1,1,1-trifluoropropan-2-yl]pyrimidine-5-sulfonamide]: 235 to 236 °C and 500 to 2000 nM.
The matching figures for `CCc1cc2c(cc1F)c(C(N)=O)c(-c1ccc(S(=O)(=O)NC3(C(F)(F)F)CC3)cn1)n2C1CCCC1` [compound 872, 1-cyclopentyl-6-ethyl-5-fluoro-2-(5-{[1-(trifluoromethyl)cyclopropyl]sulfamoyl}pyridin-2-yl)-1H-indole-3-carboxamide]: 196 to 197 °C and under 500 nM.
Take `N#Cc1c(-c2ncc(S(=O)(=O)NC(CF)CF)cn2)n(C2CCC2)c2cc(Cl)c(F)cc12` [compound 149, 2-(6-chloro-3-cyano-1-cyclobutyl-5-fluoro-1H-indol-2-yl)-N-(1,3-difluoropropan-2-yl)pyrimidine-5-sulfonamide]: the melting point was > 245 °C (dec.). In series [1], the IC50 is under 500 nM.
For the molecule `Cc1ccc2c(C#N)c(-c3ccc(S(=O)(=O)NC(C)C)cn3)n([C@@H]3CCOC3)c2c1` [compound 55, 6-{3-cyano-6-methyl-1-[(3R)-tetrahydrofuran-3-yl]-1H-indol-2-yl}-N-(propan-2-yl)pyridine-3-sulfonamide], the melting point was in the range of 164 to 167 °C. In addition, in series [1], the IC50 is under 500 nM.
In the case of `Cc1ccc2c(C#N)c(-c3ncc(S(=O)(=O)N[C@@H](C)C(F)(F)F)cn3)n(C3CCCCC3)c2c1` [compound 605, 2-(3-cyano-1-cyclohexyl-6-methyl-1H-indol-2-yl)-N-[(2S)-1,1,1-trifluoropropan-2-yl]pyrimidine-5-sulfonamide], the melting point was 257 to 260 °C. Further, in series [1], the IC50 was under 500 nM.
On the same counts, the results for `Cc1ccc2c(C#N)c(-c3ccc(S(=O)(=O)NC(CF)CF)cn3)n([C@@H]3CCOC3)c2c1` [compound 54, 6-{3-cyano-6-methyl-1-[(3R)-tetrahydrofuran-3-yl]-1H-indol-2-yl}-N-(1,3-difluoropropan-2-yl)pyridine-3-sulfonamide] are 152 to 153 °C and under 500 nM.
On the same counts, the results for `CCc1cc2c(cc1F)c(C#N)c(-c1ccc(S(=O)(=O)N[C@@H](C)C(F)(F)F)cn1)n2-c1ccc(C#N)cc1` [compound 1007, 6-[3-cyano-1-(4-cyanophenyl)-6-ethyl-5-fluoro-1H-indol-2-yl]-N-[(2S)-1,1,1-trifluoropropan-2-yl]pyridine-3-sulfonamide] are 288 to 293 °C and under 500 nM.
In turn, `Cc1cc2c(cc1F)c(C#N)c(-c1ccc(S(=O)(=O)N[C@@H](C)C(F)(F)F)cn1)n2-c1sccc1C` [compound 1000, 6-[3-cyano-5-fluoro-6-methyl-1-(3-methylthiophen-2-yl)-1H-indol-2-yl]-N-[(2S)-1,1,1-trifluoropropan-2-yl]pyridine-3-sulfonamide] returned a melting point of 197 to 203.8 °C. Further, the IC50 in series [1] was under 500 nM.
In the case of `Cc1cc2c(cc1F)c(C#N)c(-c1ccc(S(=O)(=O)N[C@@H](C)C(F)(F)F)cn1)n2-c1ccncc1` [compound 933, 6-[3-cyano-5-fluoro-6-methyl-1-(pyridin-4-yl)-1H-indol-2-yl]-N-[(2S)-1,1,1-trifluoropropan-2-yl]pyridine-3-sulfonamide], the melting point lay within 250 to 255 °C. Moreover, the IC50 in series [1] is under 500 nM.

Source of the values: patent US8735414B2 (priority 2009, dated 2014).
